Data on six compounds can be found in patent US7939589B2, “Polyhydroxy-diamines as low odor, low VOC multi-functional additives for paints and coatings” (Angus Chemical Company, priority 2009, dated 2011).

Series [1] can be described thus: Volatile organic content (VOC) of the neat amine, modified EPA Method 24. The format is physicochemical. Conditions: for VOC / Volatility by the modified EPA Test Method 24: neat amine; for VOC: 1 h at 105-110° C., percent weight loss. How it is done: Volatile Organic Content (VOC). VOC is measured following EPA Method 24. The amines are weighed in a pan and kept in an oven for 1 h at 105-110° C. The percent weight loss is reported as the VOC, corrected for the water content in the sample which can be measured by Karl Fisher Titration.

The nature of series [2]: pKa of the neat neutralizer by titration with hydrochloric acid. Conditions: neat amine; for pKa: titration; for pK1: first pKa by titration; for pK2: second pKa by titration. The format is physicochemical. How it is done: pKa. pKa is measured by titration with a hydrochloric acid titrant solution, using an automated titrator that monitors pH with a combination electrode. The titrator plots pH vs. volume of titrant added, and first determines the titration endpoint(s) of each amine as the volume of titrant added at the inflection point(s) of the curve. The titrator reports the amine pKa value as the pH value at which one-half of the endpoint titrant volume has been delivered, or in the case of multiple endpoints, multiple pKa values are determined using the midpoints between titration endpoints. The inventive amines tested in this example each have two pKa values, due to the two different amine groups in each compound's respective molecular structure.

Compound `CC(C)(N)CNC(CO)(CO)CO` [2-(2-amino-2-methylpropylamino)-2-(hydroxymethyl)propane-1,3-diol] returned a VOC contribution in series [1] of 3.9%.
Regarding `CCC(N)(CO)CO` [AEPD, 2-Amino-2-ethyl-1,3-propane-diol, reference compound], in series [2], the pKa (usually the pH at which an ionisable group is half protonated) was 8.8. Besides, the VOC in series [1] was found to be 19%.
Regarding `CC(C)(N)CO` [AMP, 2-Amino-2-methyl-1-propanol, reference compound], the pKa in series [2] worked out at 9.7. In addition, in series [1], the VOC contribution was found to be 100% and the VOC was 100%.
For the compound `CCCCN(CCO)CCO` [NBDA, N-Butyl-diethanolamine, reference compound], the pKa in series [2] was found to be 9. For the same compound, the VOC in series [1] turned out to be 21%.
As for `NC1(CNC(CO)(CO)CO)CCCCC1` [TA-ACyHM, 2-((1-aminocyclohexyl)methylamino)-2-(hydroxymethyl)propane-1,3-diol], in series [2], the pK1 was 9.7 and the pK2 was found to be 4.5. For the same compound, in series [2] (listed as TA-AcyHM), the pK1 result is given as “pK1 9.7” and the pK2 entry is on record as “pK2 4.5”. Moreover, in series [1], the VOC contribution entry is “essentially zero VOC contribution”, the “Volatility by the modified EPA Test Method 24” value is 3.8% and the VOC was found to be 3.8%.
For `CC(C)(N)CNC(CO)(CO)CO` [TA-AMP, 2-(2-Amino-2-methylpropylamino)-2-(hydroxymethyl)propane-1,3-diol], in series [1], the “Volatility by the modified EPA Test Method 24” value stood at 3.9% and the VOC was found to be 3.9%.
